Measured values from the supplement of paper PMC12420376.

How the values were obtained:
KURAMOCHI = assay: drug sensitivity score (DSS2) on cancer cell count; higher = more sensitive; extreme values may be limits of the assay; settings: 72 h
Outline: (§1)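 Screen quality was checked by Z', and a drug sensitivity score was derived in Breeze from logistic fits of the cancer cell counts. These counts were obtained by imaging at 10× (4 fields) after fixing and immunostaining for CK8/18 with Hoechst. Before that, ovarian cancer cells, alone or in 1:1 direct co-culture with lung or skin fibroblasts, had been treated for 72 h on 384-well plates acoustically pre-spotted with 528 approved and investigational compounds at 5 concentrations.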

OVCAR8 = assay: as above; settings: 72 h
Outline: as §1

[1] = co-cultured fibroblast: BJHTERT
[2] = co-cultured fibroblast: none (monoculture)

Row | Compound | drug sensitivity score (KURAMOCHI; [1]) [DSS] | drug sensitivity score (KURAMOCHI; co-cultured fibroblast: WI38) [DSS] | drug sensitivity score (KURAMOCHI; [2]) [DSS] | drug sensitivity score (OVCAR8; [1]) [DSS] | drug sensitivity score (OVCAR8; co-cultured fibroblast: WI38) [DSS] | drug sensitivity score (OVCAR8; [2]) [DSS]
1 | CCOc1ccn(-c2ccc(F)cc2)c(=O)c1C(=O)Nc1ccc(Oc2ccnc(N)c2Cl)c(F)c1 | 0.6 | 0 | 0 | 0 | 0 | 0
2 | CCn1c(C(=O)N(C2CC2)C2CC2)cc2c3c(ncn3C)c(Nc3cc(C)n(C)n3)nc21 | 3 | 1.5 | 0 | 0 | 1.1 | 1.3
3 | CN(C)CC#Cc1ccc(OCCCc2sc(N3CCc4cccc(C(=O)Nc5nc6ccccc6s5)c4C3)nc2C(=O)O)c(F)c1 | 4.1 | 6.1 | 6.9 | 4.3 | 0 | 0.7
4 | CN1CCN(C2CCC(n3cc(-c4ccc(Oc5ccccc5)cc4)c4c(N)ncnc43)CC2)CC1 (stereo not drawn) | 19.5 | 17.8 | 20.5 | 12.9 | 11.4 | 18.6
5 | C[C@@]1(C(=O)Nc2ccc(F)nc2)CCCN1c1nc(Nc2cc(C3CC3)n[nH]2)c2cccn2n1 | 13.3 | 5.5 | 10.8 | 11.6 | 13 | 14
6 | C[C@H]1C[C@@H](n2c(Nc3ccc(OC(F)(F)F)cc3)nc3cc(CCC(=O)O)ccc32)CC(C)(C)C1 | 0 | 0 | 0 | 0 | 0 | 0
7 | Cc1c(-c2ccc(N3CCc4cccc(C(=O)Nc5nc6ccccc6s5)c4C3)nc2C(=O)O)cnn1CC12CC3CC(CC(C3)C1)C2 | 3 | 8.2 | 3.8 | 1.6 | 0 | 1.6
8 | Cc1ccc(C(=O)N(CCCN)[C@@H](c2oc3cc(Cl)ccc3c(=O)c2Cc2ccccc2)C(C)C)cc1 | 8.3 | 17.2 | 14.6 | 5.2 | 7.6 | 29.1
9 | Cc1nn(C)c(COc2ccc(N3CCN(S(=O)(=O)N(C)C)CC3)cc2)c1-c1cccc2c(CCCOc3cccc4ccccc34)c(C(=O)O)n(CCN3CCOCC3)c12 | 5.7 | 8.5 | 10.3 | 4.7 | 4 | 8.2
10 | N#Cc1ccc(COC[C@H]2O[C@@H](n3c(NCc4ccc(Cl)c(Cl)c4)nc4c(N)ncnc43)[C@H](O)[C@@H]2O)cc1 | 4.2 | 3.3 | 3.1 | 1 | 0 | 5.5
11 | NC[C@@](O)(c1ccc(Cl)cc1)c1ccc(-c2cn[nH]c2)cc1 | 0 | 4.2 | 3 | 3.3 | 10.7 | 5.1
12 | O=C(Nc1ccc2[nH]nc(-c3ccncc3)c2c1)[C@@H]1CCN(CC(=O)N2CCN(c3ccc(-c4ncccn4)cc3)CC2)C1 | 13.5 | 12.4 | 15.5 | 16.6 | 10.2 | 15.5
13 | O=c1[nH]c(C2CCCN2)nc2c1oc1ccc(Cl)cc12 (stereo not drawn) | 2.2 | 5.4 | 4.1 | 4.4 | 1.8 | 2.8
14 | COc1ccc(C[C@H](NC(=O)[C@H](C)NC(=O)CN2CCOCC2)C(=O)N[C@@H](Cc2ccccc2)C(=O)C2(C)CO2)cc1 (stereo in doubt) [ONX-0914] | 15.7 | 17.7 | 17.6 | 8.4 | 16.1 | 17.8
15 | Cn1cc(C[C@@H](N)C(=O)O)c2ccccc21 [1-methyl-D-tryptophan] | 0 | 0 | 10.3 | 0 | 0 | 0
16 | CC/C(=C(\c1ccc(O)cc1)c1ccc(OCCN(C)C)cc1)c1ccccc1 [4-hydroxytamoxifen] | 4.8 | 1.8 | 2.2 | 0.2 | 0 | 4.9
17 | Nc1ncnc2c1nc(N)n2[C@@H]1O[C@H](CO)[C@@H](O)[C@H]1O [8-amino-adenosine] | 21 | 20.3 | 21.4 | 17.9 | 16.5 | 19.5
18 | Nc1ncnc2c1nc(Cl)n2[C@@H]1O[C@H](CO)[C@@H](O)[C@H]1O [8-chloro-adenosine] | 10.1 | 10.4 | 10.3 | 12.9 | 9.9 | 16.9
19 | COc1cc2c(cc1OCCCN1CCCC1)N=C(N)C21CCC1 [A-366] | 2.1 | 0.5 | 0 | 4.1 | 0 | 0.3
20 | COc1ccc(S(=O)(=O)Nc2cccnc2Nc2ccc(O)cc2)cc1 [ABT-751] | 14.5 | 17.3 | 17.9 | 18.7 | 15.9 | 19.3
21 | C[C@H](Nc1ncnc2[nH]cnc12)c1cc2ccc(F)cc2nc1-c1ccccn1 [AMG319] | 1.2 | 0 | 0 | 0 | 5.8 | 0
22 | CC(C)[C@@H](CS(=O)(=O)C(C)C)N1C(=O)[C@@](C)(CC(=O)O)C[C@H](c2cccc(Cl)c2)[C@H]1c1ccc(Cl)cc1 [AMG-232] | 0.2 | 0 | 0.5 | 1.6 | 0 | 0.7
23 | COCCOc1cnc2ccn([C@H](C)c3nnc4c(F)cc(-c5cnn(C)c5)cn34)c(=O)c2c1 [AMG-337] | 0 | 0 | 0 | 0 | 0 | 0
24 | CC1CCC(n2c3cnccc3c3cnc(Nc4ccc5c(n4)CCN(C(=O)CO)C5)nc32)CC1 (stereo not drawn) [AMG-925] | 0 | 2.2 | 0 | 0 | 0 | 0
25 | COCC1(CO)C(=O)C2CCN1CC2 (stereo not drawn) [APR-246] | 0 | 0 | 0 | 0 | 0 | 0
26 | CC(C)[C@H](C(=O)Nc1ccc(C(=O)NO)cc1)c1ccccc1 [AR-42] | 14 | 15.8 | 12.3 | 17.8 | 15.3 | 18.8
27 | Cc1sc2c(c1C)C(c1ccc(Cl)cc1)=N[C@@H](CC(=O)Nc1ccc(OCCOCCOCCOCCNc3cccc4c3C(=O)N(C3CCC(=O)NC3=O)C4=O)cc1)c1nnc(C)n1-2 (stereo partly drawn) [ARV-825] | 6.9 | 7.9 | 4.5 | 19.6 | 14.7 | 18.8

Row | Compound | drug sensitivity score (KURAMOCHI; [1]) [DSS] | drug sensitivity score (KURAMOCHI; co-cultured fibroblast: WI38) [DSS] | drug sensitivity score (KURAMOCHI; [2]) [DSS] | drug sensitivity score (OVCAR8; [1]) [DSS] | drug sensitivity score (OVCAR8; co-cultured fibroblast: WI38) [DSS] | drug sensitivity score (OVCAR8; [2]) [DSS]
28 | COc1cc(N2CCC(N3CCN(C)CC3)CC2)ccc1Nc1ncnc(Nc2ccccc2S(=O)(=O)C(C)C)n1 [ASP3026] | 7.7 | 2 | 5.7 | 8.6 | 3.1 | 4.7
29 | O=C(NC1CCNCC1)c1n[nH]cc1NC(=O)c1c(Cl)cccc1Cl [AT7519] | 17.3 | 18.8 | 19.6 | 21.6 | 17.5 | 19.9
30 | O=C(Nc1c[nH]nc1-c1nc2ccc(CN3CCOCC3)cc2[nH]1)NC1CC1 [AT9283] | 15.8 | 16 | 19.6 | 10.7 | 14.2 | 9
31 | CN[C@@H](C)C(=O)N[C@H]1CN(C(=O)CC(C)C)CC[C@H]2CC[C@@H](C(=O)NC(c3ccccc3)c3ccccc3)N2C1=O [AT-406] | 0 | 0 | 0 | 10 | 9.9 | 9.7
32 | CC[C@H](CC#N)OC(=O)N[C@@H](C)c1cccc(NC(=O)Nc2ccc(-c3cnco3)c(OC)c2)c1 [AVN944] | 12.7 | 17.5 | 19.4 | 22.4 | 15 | 26.6
33 | COc1cc(N2CCN(C)CC2)ccc1Nc1nccc(-c2cn(C)c3cnccc23)n1 [AZ191] | 5.9 | 2.3 | 6.9 | 3.3 | 2 | 1.3
34 | COc1cc(OC2CCN(C)CC2)ccc1Nc1ncc2c(n1)n(C1CCCC1)c(=O)n2C [AZ 3146] | 1.8 | 3.2 | 1.5 | 8.3 | 9.6 | 4.3
35 | CN(C)CCCOc1ccc(-c2ccc3ncc4c(c3c2)n(C2CCOCC2)c(=O)n4C)cn1 [AZD0156] | 2.5 | 1.4 | 0.7 | 6.4 | 6.8 | 0.5
36 | N[C@@H]1CCCN(c2c(/C=C3\SC(=O)NC3=O)cccc2-c2ccccc2)C1 [AZD1208] | 0 | 1.7 | 1.3 | 0 | 0 | 1.8
37 | Cc1cc(Nc2nc(N[C@@H](C)c3ncc(F)cn3)ncc2Cl)[nH]n1 [AZD1480] | 0.1 | 0.7 | 0 | 0.4 | 0 | 0.4
38 | C=CCn1c(=O)c2cnc(Nc3ccc(N4CCN(C)CC4)cc3)nc2n1-c1cccc(C(C)(C)O)n1 [AZD1775] | 15.3 | 12.7 | 13.2 | 21 | 14.9 | 18.4
39 | COc1cc2ncnc(Nc3cccc(Cl)c3F)c2cc1OC(=O)N1CCN(C)C[C@H]1C [AZD3759] | 1.1 | 0 | 0 | 0.8 | 3.6 | 0
40 | Cc1[nH]nc(C(F)(F)F)c1Cc1sc2c(c1C(=O)N1C[C@](C)(O)CO1)c(=O)n(C)c(=O)n2C(C)C [AZD3965] | 0 | 1.7 | 0 | 0 | 0 | 0
41 | COc1cc(CCc2cc(NC(=O)c3ccc(N4CC(C)NC(C)C4)cc3)n[nH]2)cc(OC)c1 (stereo not drawn) [AZD4547] | 0 | 0 | 0 | 0 | 0 | 0
42 | C[C@@H]1COCCN1c1cc(C2([S@](C)(=N)=O)CC2)nc(-c2cc[nH]c3nccc2-3)n1 [AZD6738] | 10.4 | 8.6 | 10.9 | 11.1 | 4.4 | 8.1
43 | CN(C)C(=O)c1ccc(S(=O)(=O)c2ccc(NC(=O)[C@@](C)(O)C(F)(F)F)c(Cl)c2)cc1 [AZD7545] | 0.4 | 0 | 0 | 3.4 | 0 | 0.7
44 | NC(=O)Nc1cc(-c2cccc(F)c2)sc1C(=O)N[C@H]1CCCNC1 [AZD7762] | 8.7 | 6.6 | 22.4 | 7.3 | 9.2 | 4.5
45 | COc1ccc(-c2ccc3c(N4CCOC[C@@H]4C)nc(N4CCOC[C@@H]4C)nc3n2)cc1CO [AZD8055] | 21.3 | 18.1 | 19 | 17.9 | 11.4 | 21
46 | N#Cc1ccc2[nH]c(O)c(-c3ccc(CN4CCOCC4)cn3)c2c1 [AZD-1080] | 0 | 0 | 0 | 0.1 | 0 | 0
47 | Cc1ncc(-c2ccnc(Nc3ccc(S(C)(=O)=O)cc3)n2)n1C(C)C [AZD-5438] | 17.8 | 22.5 | 17.7 | 19 | 19.2 | 17.2
48 | Cc1cc([C@@H](C)Nc2ccccc2C(=O)O)c2nc(N3CCOCC3)cc(=O)n2c1 [AZD-6482] | 6.1 | 1.5 | 4.4 | 1.2 | 0 | 0
49 | C[C@@H](Nc1cc(F)cc(F)c1)c1cc(C(=O)N(C)C)cc2c(=O)cc(N3CCOCC3)oc12 [AZD-8186] | 8.7 | 3.8 | 6.5 | 0 | 0 | 0.8
50 | CCN1CCN(Cc2ccc(Nc3ncc(F)c(-c4cc(F)c5nc(C)n(C(C)C)c5c4)n3)nc2)CC1 [Abemaciclib] | 5.5 | 7.8 | 0.2 | 9.4 | 0 | 2.4
51 | CN(C)Cc1c(C(=O)NCCOc2ccc(C(=O)NO)cc2)oc2ccccc12 [Abexinostat] | 17.2 | 20.6 | 15.7 | 25.3 | 18.5 | 27.9
52 | C[C@]12CC[C@H](O)CC1=CC[C@@H]1[C@@H]2CC[C@]2(C)C(c3cccnc3)=CC[C@@H]12 [Abiraterone] | 0 | 0 | 0 | 0 | 0 | 0
53 | CC#CC(=O)N1CCC[C@H]1c1nc(-c2ccc(C(=O)Nc3ccccn3)cc2)c2c(N)nccn12 [Acalabrutinib] | 0 | 0 | 11 | 0 | 0 | 0
